Test results published in patent US12459952B2, “TREM2 modulators” (Muna Therapeutics ApS, priority 2024, dated 2025).

Target: T1, Human TREM2 (Homo sapiens, UniProt Q9NZC2)
T1 construct: expressed in transfected cells
Experiment: Human TREM2 cellular phospho-Syk AlphaLISA assay in HEK293/DAP12+TREM2 stable cell line
Type: cell-based
Conditions: HEK293/DAP12+TREM2 cells; for Emax: maximal response relative to the maximal response of the reference agonist, phospho-Syk AlphaLISA; for EC50: phospho-Syk (Tyr525/526) AlphaLISA signal, 30 min incubation
Text: Human TREM2, in vitro Measurement of Triggering Receptor Expressed on Myeloid Cells 2 activity using cellular phosphorylation of Spleen Tyrosine Kinase (“Syk”) Assay
HEK-293 cells were co-transfected with separate plasmids encoding TREM2 and DAP12 to generate a stable cell line. After antibiotic selection, functional clone pool analysis and two successive limiting dilutions, the final clone “HEK293/DAP12+TREM2” underwent a qPCR analysis and a pharmacological validation.
TREM2 signaling through DAP12 was monitored in the HEK293/DAP12+TREM2 stable cell line by measuring the phosphorylation levels of the Syk kinase using the commercially available AlphaLISA SureFire Ultra p-SYK (Tyr525/526) Assay Kit (PerkinElmer #ALSU-PSYK), based on the Perkin Elmer AlphaScreen/AlphaLISA technology.
Compounds are transferred to the test plate and tested in full dose response, 8 concentrations in quadruplicate data points. Compound serial dilutions were performed at Cybi-Felix instrument in 100% DMSO and the dose response curves were assembled in automated fashion in 384MPT at Hamilton STARlet instrument. All the stock solutions were prepared at 20 mM in 100% DMSO. For compounds testing, the starting concentration was 100 μM, dilution steps 1:6. A different concentration's range was adapted for compound's activity based on the preliminary results. Finally, a 384MPT reformatted for all compounds at 8 concentrations, quadruplicates, was used as “mother to child” process with a CyBi@-Well dispenser in which 1 μL of each compound was moved into a destination plate pre-filled with […] of EMEM cell culture medium (BIOWHITTAKER_cat.BE12-125F), thus obtaining 3× concentrated compounds working solution. In columns 1-2 and 23-24 the control wells were added. In particular, dose response curves of a reference control agonist were included in column 1 and 24 as reference control agonist (Reference control agonists used include Human TREM2 polyclonal Antibody AF1828: R&D Systems; Human TREM2 monoclonal Antibody MAB1828: R&D Systems). The dose response curves were tested starting at 30 μM, dilution step 1:6. Both “source” compound plate and “destination” compound plate were barcoded and a relationship between the two plates was thus generated.
HEK293/DAP12+TREM2 cells were cultured in EMEM medium supplemented with IX Penicillin/Streptomycin (BIOWHITTAKER_cat.DE17-602E), ULTRAGLUTAMINE I 200 mM, 10% Fetal Bovine Serum plus antibiotics referred to as “HEK293 Culture Medium”. The day before the experiment, cells were detached by gentle wash with DPBS, followed by 5 min incubation at 37° C. with Trypsin solution. Cells were then diluted in HEK293 Culture Medium without antibiotics, counted and seeded into 384-well poly-D-Lysine coated microplates black/clear bottom (GREINER 781946) at a density of 10,000 cells/well in 25 μL/well by the use of a MATRIX WellMate dispenser. Plates were placed into a humidified cell culture incubator at 37° C. with 5% CO2 until the experimental day. 20-24 hours after seeding mature medium was removed and replaced with 10 μL/well of EMEM cell medium supplemented with 0.1% Pluronic F-68 non-ionic surfactant (Thermofisher, 24040032), referred to as “Assay Buffer”, using the CyBi@-Well instrument. Then 5 μL/well of Assay Buffer containing 3× concentrated test compounds or the reference control agonist (in 0.5% final DMSO concentration) were added to the cells with the CyBi@-Well instrument. Cell plates were incubated for 30 min into a humidified cell culture incubator at 37° C. with 5% CO2, then the medium was removed by manually discard. 20 μL/well of lysis buffer were dispensed using the CyBi@-Well instrument and plates were incubated for 10 min at room temperature on a plate shaker (350 rpm). Then, 10 μL/well of lysate were transferred to the Alpha plates.
The CyBi@-Well instrument was used to dispense 5 μL/well of AlphaLISA Acceptor Bead Solution in IX Immunoassay buffer (Perkin Elmer AL000F). […]

T1 sequence (Q9NZC2 19-230): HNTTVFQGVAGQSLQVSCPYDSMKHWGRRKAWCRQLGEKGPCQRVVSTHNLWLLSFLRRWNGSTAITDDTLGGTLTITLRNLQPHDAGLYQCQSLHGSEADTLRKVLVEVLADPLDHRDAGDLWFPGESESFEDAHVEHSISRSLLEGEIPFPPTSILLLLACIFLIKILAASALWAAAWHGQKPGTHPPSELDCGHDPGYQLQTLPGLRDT
T1 sequence (O43914 22-113 partner): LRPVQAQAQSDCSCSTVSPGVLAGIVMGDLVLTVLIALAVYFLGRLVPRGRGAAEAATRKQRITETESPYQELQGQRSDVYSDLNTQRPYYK

Structure (SMILES) | Emax [%] | EC50 [µM]
Cn1c(C(F)(F)F)nc2c(-c3ccc(C#N)nc3)nc(N3CC(Oc4cnn(C5CC5)c4)C3)nc2c1=O [Example 38, 5-(2-(3-((1-cyclopropyl-1H-pyrazol-4-yl)oxy)azetidin-1-yl)-7-methyl-8-oxo-6-(trifluoromethyl)-7,8-dihydropyrimido[5,4-d]pyrimidin-4-yl)picolinonitrile] | 75 to 110 | 0.1 to 1
Cn1c(C(F)(F)F)nc2c(-c3ccc(C#N)cc3)nc(N3CC(Oc4cnn(C5CC5)c4)C3)nc2c1=O [Example 35, 4-(2-(3-((1-cyclopropyl-1H-pyrazol-4-yl)oxy)azetidin-1-yl)-7-methyl-8-oxo-6-(trifluoromethyl)-7,8-dihydropyrimido[5,4-d]pyrimidin-4-yl)benzonitrile] | 75 to 110 | 0.01 to 0.1
Cn1c(C(F)(F)F)nc2c(-c3ccc(C#N)cc3F)nc(N3CC(Oc4cnn(CC(F)F)c4)C3)nc2c1=O [Example 17, 4-(2-(3-((1-(2,2-difluoroethyl)-1H-pyrazol-4-yl)oxy)azetidin-1-yl)-7-methyl-8-oxo-6-(trifluoromethyl)-7,8-dihydropyrimido[5,4-d]pyrimidin-4-yl)-3-fluorobenzonitrile] | 75 to 110 | 0.1 to 1
Cn1c(C(F)(F)F)nc2c(-c3ccc(C#N)cc3F)nc(N3CC(Oc4cnnc(Cl)c4)C3)nc2c1=O [Example 26, 4-(2-(3-((6-chloropyridazin-4-yl)oxy)azetidin-1-yl)-7-methyl-8-oxo-6-(trifluoromethyl)-7,8-dihydropyrimido[5,4-d]pyrimidin-4-yl)-3-fluorobenzonitrile] | < 75 | 0.1 to 1
Cn1c(C(F)(F)F)nc2c(-c3ccc(F)cc3F)nc(N3CC(Cc4cnn(C5CC5)c4)C3)nc2c1=O [Example 31, 6-(3-((1-cyclopropyl-1H-pyrazol-4-yl)methyl)azetidin-1-yl)-8-(2,4-difluorophenyl)-3-methyl-2-(trifluoromethyl)pyrimido[5,4-d]pyrimidin-4(3H)-one] | 75 to 110 | 0.1 to 1
Cn1c(C(F)(F)F)nc2c(-c3ccc(C#N)cc3F)nc(N3CC(Oc4ccnc(C(F)F)c4)C3)nc2c1=O [Example 23, 4-(2-(3-((2-(difluoromethyl)pyridin-4-yl)oxy)azetidin-1-yl)-7-methyl-8-oxo-6-(trifluoromethyl)-7,8-dihydropyrimido[5,4-d]pyrimidin-4-yl)-3-fluorobenzonitrile] | 75 to 110 | 0.01 to 0.1
Cn1c(C(F)(F)F)nc2c(-c3ccc(C#N)cc3F)nc(N3CC(Oc4cnn(CC5CC5)c4)C3)nc2c1=O [Example 15, 4-(2-(3-((1-(cyclopropylmethyl)-1H-pyrazol-4-yl)oxy)azetidin-1-yl)-7-methyl-8-oxo-6-(trifluoromethyl)-7,8-dihydropyrimido[5,4-d]pyrimidin-4-yl)-3-fluorobenzonitrile] | > 110 | 0.01 to 0.1
CCCn1cc(OC2CN(c3nc(-c4ccc(C#N)cc4F)c4nc(C(F)(F)F)n(C)c(=O)c4n3)C2)cn1 [Example 12, 3-fluoro-4-(7-methyl-8-oxo-2-(3-((1-propyl-1H-pyrazol-4-yl)oxy)azetidin-1-yl)-6-(trifluoromethyl)-7,8-dihydropyrimido[5,4-d]pyrimidin-4-yl)benzonitrile] | 75 to 110 | 0.1 to 1
Cc1ncc(OC2CN(c3nc(-c4ccc(C#N)cc4F)c4nc(C(F)(F)F)n(C)c(=O)c4n3)C2)cn1 [Example 28, 3-fluoro-4-(7-methyl-2-(3-((2-methylpyrimidin-5-yl)oxy)azetidin-1-yl)-8-oxo-6-(trifluoromethyl)-7,8-dihydropyrimido[5,4-d]pyrimidin-4-yl)benzonitrile] | < 75 | 0.1 to 1
Cc1ncncc1OC1CN(c2nc(-c3ccc(C#N)cc3F)c3nc(C(F)(F)F)n(C)c(=O)c3n2)C1 [Example 29, 3-fluoro-4-(7-methyl-2-(3-((4-methylpyrimidin-5-yl)oxy)azetidin-1-yl)-8-oxo-6-(trifluoromethyl)-7,8-dihydropyrimido[5,4-d]pyrimidin-4-yl)benzonitrile] | < 75 | 0.1 to 1
Cn1c(C(F)(F)F)nc2c(-c3ccc(C#N)cc3F)nc(N3CC(Oc4cnn(CC(F)(F)F)c4)C3)nc2c1=O [Example 19, 3-fluoro-4-(7-methyl-8-oxo-2-(3-((1-(2,2,2-trifluoroethyl)-1H-pyrazol-4-yl)oxy)azetidin-1-yl)-6-(trifluoromethyl)-7,8-dihydropyrimido[5,4-d]pyrimidin-4-yl)benzonitrile] | 75 to 110 | 0.01 to 0.1
CC(C)n1cc(OC2CN(c3nc(-c4ccc(C#N)cc4F)c4nc(C(F)(F)F)n(C)c(=O)c4n3)C2)cn1 [Example 11, 3-fluoro-4-(2-(3-((1-isopropyl-1H-pyrazol-4-yl)oxy)azetidin-1-yl)-7-methyl-8-oxo-6-(trifluoromethyl)-7,8-dihydropyrimido[5,4-d]pyrimidin-4-yl)benzonitrile] | 75 to 110 | 0.01 to 0.1
Cn1ncc(OC2CN(c3nc(-c4ccc(C#N)cc4F)c4nc(C(F)(F)F)n(C)c(=O)c4n3)C2)c1Cl [Example 13, 4-(2-(3-((5-chloro-1-methyl-1H-pyrazol-4-yl)oxy)azetidin-1-yl)-7-methyl-8-oxo-6-(trifluoromethyl)-7,8-dihydropyrimido[5,4-d]pyrimidin-4-yl)-3-fluorobenzonitrile] | 75 to 110 | 0.1 to 1
Cc1nn(C)cc1OC1CN(c2nc(-c3ccc(C#N)cc3F)c3nc(C(F)(F)F)n(C)c(=O)c3n2)C1 [Example 10, 4-(2-(3-((1,3-dimethyl-1H-pyrazol-4-yl)oxy)azetidin-1-yl)-7-methyl-8-oxo-6-(trifluoromethyl)-7,8-dihydropyrimido[5,4-d]pyrimidin-4-yl)-3-fluorobenzonitrile] | < 75 | 0.1 to 1
Cn1c(C(F)(F)F)nc2c(-c3ccc(C#N)cc3F)nc(N3CC(Oc4cnccn4)C3)nc2c1=O [Example 5, 3-fluoro-4-(7-methyl-8-oxo-2-(3-(pyrazin-2-yloxy)azetidin-1-yl)-6-(trifluoromethyl)-7,8-dihydropyrimido[5,4-d]pyrimidin-4-yl)benzonitrile] | < 75 | 0.01 to 0.1
Cn1c(C(F)(F)F)nc2c(-c3ccc(C#N)cc3F)nc(N3CC(Oc4cnc(C#N)cn4)C3)nc2c1=O [Example 7, 5-((1-(4-(4-cyano-2-fluorophenyl)-7-methyl-8-oxo-6-(trifluoromethyl)-7,8-dihydropyrimido[5,4-d]pyrimidin-2-yl)azetidin-3-yl)oxy)pyrazine-2-carbonitrile] | < 75 | 0.1 to 1
Cn1c(C(F)(F)F)nc2c(-c3ccc(C#N)cc3F)nc(N3CC(Oc4nncs4)C3)nc2c1=O [Example 2, 4-(2-(3-((1,3,4-thiadiazol-2-yl)oxy)azetidin-1-yl)-7-methyl-8-oxo-6-(trifluoromethyl)-7,8-dihydropyrimido[5,4-d]pyrimidin-4-yl)-3-fluorobenzonitrile] | < 75 | > 1
Cn1c(C(F)(F)F)nc2c(-c3ccc(C#N)cc3F)nc(N3CC(Oc4cnn(C5CCC5)c4)C3)nc2c1=O [Example 16, 4-(2-(3-((1-cyclobutyl-1H-pyrazol-4-yl)oxy)azetidin-1-yl)-7-methyl-8-oxo-6-(trifluoromethyl)-7,8-dihydropyrimido[5,4-d]pyrimidin-4-yl)-3-fluorobenzonitrile] | 75 to 110 | 0.01 to 0.1
